Measured values taken from the NIST ThermoML archive (doi:10.1016/j.jct.2016.03.020).

Conditions: Liquid, Gas chromatography

Cc1coc2c1CC[C@@H](C)C2 [(R)-menthofuran]
Conditions	vapor or sublimation pressure [kPa]
298.15 K	0.036
374.3 K	2.93
380 K	3.76
400 K	8.37
420 K	17.06
482.4 K	101.23
